Test systems include HCT-116 colon; TK-10 renal; A549 NSCLC; UO-31 renal; KM12 colon; OVCAR-8 ovarian; OVCAR-5 ovarian; RXF 393 renal; U251 CNS; SR leukemia.
Common to all, as to assay: inhibition of tumour cell growth, NCI panel, 48 h

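Values below derive from 48-hour exposures of cells grown in 96-well plates, with endpoints linearly interpolated between the two concentrations bracketing the appropriate inhibition level. Here, GI50 denotes the concentration required for 50% inhibition of growth. TGI marks complete inhibition of growth.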 Some results are limits rather than exact numbers.

In the case of `COc1cccc(-c2nn(-c3ccccc3)cc2-c2ccnc(NCCCNS(=O)(=O)c3cccc(F)c3)c2)c1`, the GI50 with HCT-116 colon is 3.67 µM; in the assay with TK-10 renal it was 5.32 µM; with A549 NSCLC, 6.34 µM; with UO-31 renal, 1.87 µM; with KM12 colon it was 3.38 µM; in the assay on OVCAR-8 ovarian, 3.93 µM. The GI50 in the assay with OVCAR-5 ovarian was > 100 µM; in the assay with RXF 393 renal, 4.18 µM; in the assay on U251 CNS, 4.83 µM; in the assay on SR leukemia it was 2.13 µM. Moreover, the TGI with HCT-116 colon, in the assay on TK-10 renal, in the assay on A549 NSCLC, in the assay with UO-31 renal, with KM12 colon and in the assay with OVCAR-8 ovarian was > 100 µM each time. Besides, the TGI in the assay with OVCAR-5 ovarian is > 100 µM; in the assay on RXF 393 renal, > 100 µM; in the assay with U251 CNS it was > 100 µM; in the assay on SR leukemia, 7.22 µM.

For `C[C@@H]1Cc2c([nH]c3ccccc23)[C@@H](c2c(F)cc(/C=C/C(=O)O)cc2F)N1CC(C)(C)F`, the GI50 with HCT-116 colon was 12.7 µM; with TK-10 renal, 15.9 µM; in the assay on A549 NSCLC it was 11.6 µM; in the assay with UO-31 renal, 8.1 µM; in the assay with KM12 colon it was 11 µM; with OVCAR-8 ovarian, 11.9 µM. Further, the GI50 with OVCAR-5 ovarian is 22.2 µM; in the assay on RXF 393 renal it was 11.7 µM; with U251 CNS it was 10.5 µM; in the assay on SR leukemia, 15.9 µM. Also, the TGI was 26.7 µM in the assay with HCT-116 colon; 39.4 µM with TK-10 renal; 26.6 µM with A549 NSCLC; 21.6 µM in the assay on UO-31 renal; 28.7 µM with KM12 colon; 38.4 µM in the assay with OVCAR-8 ovarian. Also, the TGI came to 46.8 µM in the assay on OVCAR-5 ovarian, 26.2 µM with RXF 393 renal, 25 µM in the assay with U251 CNS and 48.4 µM in the assay on SR leukemia.

On to `COc1ccccc1NC(=O)c1ccc(/C=C/C(=O)c2nccn2C)cc1`, for which the GI50 was 0.408 µM in the assay on HCT-116 colon; 0.811 µM with TK-10 renal; 0.74 µM with A549 NSCLC; 0.357 µM with UO-31 renal; 0.44 µM with KM12 colon; 0.916 µM with OVCAR-8 ovarian. In addition, the GI50 in the assay on OVCAR-5 ovarian is 0.619 µM; with RXF 393 renal, 0.42 µM; in the assay on U251 CNS, 0.434 µM; in the assay on SR leukemia it was 0.242 µM. In addition, the TGI amounted to 0.89 µM in the assay on HCT-116 colon; 9.53 µM with TK-10 renal; 8.75 µM with A549 NSCLC; 0.714 µM in the assay on UO-31 renal; 0.872 µM with KM12 colon; 10.1 µM with OVCAR-8 ovarian. Further, the TGI with OVCAR-5 ovarian worked out at 1.73 µM; in the assay on RXF 393 renal it was 0.857 µM; with U251 CNS, 1.02 µM; in the assay on SR leukemia it was 7 µM.

These data come from PubChem BioAssay (NCI).
